Take `CCCCCn1cncc1-c1c[nH]c2cccc(F)c12`: the melting point (commonly the temperature of the solid-liquid transition) is 147 to 148 °C.

In turn, `CCCCCn1cncc1-c1c[nH]c2c(F)cccc12` displayed a melting point of 164 to 165 °C.

In the case of `CCCCCn1cncc1-c1c[nH]c2cccc(Cl)c12`, the melting point was 188 to 189 °C. `Ic1ccc(Cn2cncc2-c2c[nH]c3ccccc23)cc1` [Compound 4, 3-(1-(4-Iodobenzyl)-1H-imidazol-5-yl)-1H-indole]: the melting point is over 200 °C.

With `Fc1ccc2[nH]cc(-c3cncn3Cc3ccc(I)cc3)c2c1` [Compound 5, 5-Fluoro-3-(1-(4-iodobenzyl)-1H-imidazol-5-yl)-1H-indole], the melting point lay within 187 to 188 °C. Then `Clc1ccc2[nH]cc(-c3cncn3Cc3ccc(I)cc3)c2c1` [Compound 7, 5-Chloro-3-(1-(4-iodobenzyl)-1H-imidazol-5-yl)-1H-indole], with over 200 °C; and `Clc1ccc2c(-c3cncn3Cc3ccc(I)cc3)c[nH]c2c1` [Compound 8, 6-Chloro-3-(1-(4-iodobenzyl)-1H-imidazol-5-yl)-1H-indole], with over 200 °C; and `Brc1ccc2c(-c3cncn3Cc3ccc(I)cc3)c[nH]c2c1` [Compound 10, 6-Bromo-3-(1-(4-iodobenzyl)-1H-imidazol-5-yl)-1H-indole], with over 200 °C. Then `COc1ccc(Cn2cncc2-c2c[nH]c3ccc(F)cc23)cc1` [Compound 12, 5-Fluoro-3-(1-(4-methoxybenzyl)-1H-imidazol-5-yl)-1H-indole], with 181 to 182 °C; and `COc1ccc(Cn2cncc2-c2c[nH]c3cc(F)ccc23)cc1` [Compound 13, 6-Fluoro-3-(1-(4-methoxybenzyl)-1H-imidazol-5-yl)-1H-indole], with 181 to 182 °C; and `COc1ccc(Cn2cncc2-c2c[nH]c3ccc(Cl)cc23)cc1` [Compound 14, 5-Chloro-3-(1-(4-methoxybenzyl)-1H-imidazol-5-yl)-1H-indole], with 193 to 194 °C. Then `COc1ccc(Cn2cncc2-c2c[nH]c3cc(Cl)ccc23)cc1` [Compound 15, 6-Chloro-3-(1-(4-methoxybenzyl)-1H-imidazol-5-yl)-1H-indole], with 178 to 179 °C; and `COc1ccc(Cn2cncc2-c2c[nH]c3ccc(Br)cc23)cc1` [Compound 16, 5-Bromo-3-(1-(4-methoxybenzyl)-1H-imidazol-5-yl)-1H-indole], with 197 to 198 °C; and `Clc1ccc2c(-c3cncn3CCc3ccccc3)c[nH]c2c1` [Compound 20, 6-Chloro-3-(1-phenethyl-1H-imidazol-5-yl)-1H-indole], with 91 to 92 °C. `COc1ccc(CCn2cncc2-c2c[nH]c3ccc(F)cc23)cc1` [Compound 24, 5-Fluoro-3-(1-(4-methoxyphenethyl)-1H-imidazol-5-yl)-1H-indole]: the melting point lay within 152 to 153 °C.

The molecule `COc1ccc(OC)c(CCn2cncc2-c2c[nH]c3ccc(F)cc23)c1` [Compound 30, 3-(1-(2,5-Dimethoxyphenethyl)-1H-imidazol-5-yl)-5-fluoro-1H-indole] yielded a melting point of 150 to 151 °C.

The molecule `COc1ccc(OC)c(CCn2cncc2-c2c[nH]c3cc(F)ccc23)c1` [Compound 31, 3-(1-(2,5-Dimethoxyphenethyl)-1H-imidazol-5-yl)-6-fluoro-1H-indole] displayed a melting point of 130 to 131 °C.

For `COc1ccc(OC)c(CCn2cncc2-c2c[nH]c3cc(Cl)ccc23)c1` [Compound 33, 6-Chloro-3-(1-(2,5-dimethoxyphenethyl)-1H-imidazol-5-yl)-1H-indole], the melting point is 80 to 81 °C. Then `COc1ccc(OC)c(CCn2cncc2-c2c[nH]c3cc(Br)ccc23)c1` [Compound 35, 6-Bromo-3-(1-(2,5-dimethoxyphenethyl)-1H-imidazol-5-yl)-1H-indole], with 133 to 134 °C; and `c1ccc2c(-c3cncn3CCc3ccc4c(c3)OCO4)c[nH]c2c1` [Compound 36, 3-(1-(2-(Benzo[d][1,3]dioxol-5-yl)ethyl)-1H-imidazol-5-yl)-1H-indole], with 195 to 196 °C; and `Fc1ccc2[nH]cc(-c3cncn3CCc3ccc4c(c3)OCO4)c2c1` [Compound 37, 3-(1-(2-(Benzo[d][1,3]dioxol-5-yl)ethyl)-1H-imidazol-5-yl)-5-fluoro-1H-indole], with over 200 °C. Then `Fc1ccc2c(-c3cncn3CCc3ccc4c(c3)OCO4)c[nH]c2c1` [Compound 38, 3-(1-(2-(Benzo[d][1,3]dioxol-5-yl)ethyl)-1H-imidazol-5-yl)-6-fluoro-1H-indole], with 188 to 189 °C; and `Clc1ccc2[nH]cc(-c3cncn3CCc3ccc4c(c3)OCO4)c2c1` [Compound 39, 3-(1-(2-(Benzo[d][1,3]dioxol-5-yl)ethyl)-1H-imidazol-5-yl)-5-chloro-1H-indole], with over 200 °C. For `Clc1ccc2c(-c3cncn3CCc3ccc4c(c3)OCO4)c[nH]c2c1` [Compound 40, 3-(1-(2-(Benzo[d][1,3]dioxol-5-yl)ethyl)-1H-imidazol-5-yl)-6-chloro-1H-indole], the melting point was in the range of 180 to 181 °C. For `Brc1ccc2[nH]cc(-c3cncn3CCc3ccc4c(c3)OCO4)c2c1` [Compound 41, 3-(1-(2-(Benzo[d][1,3]dioxol-5-yl)ethyl)-1H-imidazol-5-yl)-5-bromo-1H-indole], the melting point was in the range of 176 to 177 °C. Then `Fc1cccc2[nH]cc(-c3cncn3Cc3ccccc3)c12` [Compound 43, 3-(1-Benzyl-1H-imidazol-5-yl)-4-fluoro-1H-indole], with 177 to 178 °C; and `Fc1cccc2c(-c3cncn3Cc3ccccc3)c[nH]c12` [Compound 44, 3-(1-Benzyl-1H-imidazol-5-yl)-7-fluoro-1H-indole], with 179 to 180 °C. In the case of `Clc1cccc2[nH]cc(-c3cncn3Cc3ccccc3)c12` [Compound 45, 3-(1-Benzyl-1H-imidazol-5-yl)-4-chloro-1H-indole], the melting point lay within 198 to 199 °C.

`Clc1ccc2[nH]cc(-c3cncn3Cc3ccccc3)c2c1` [Compound 46, 3-(1-Benzyl-1H-imidazol-5-yl)-5-chloro-1H-indole] yielded a melting point of 78 to 79 °C. In the case of `Clc1cccc2c(-c3cncn3Cc3ccccc3)c[nH]c12` [Compound 47, 3-(1-Benzyl-1H-imidazol-5-yl)-7-chloro-1H-indole], the melting point was in the range of 179 to 180 °C. Then `Brc1cccc2[nH]cc(-c3cncn3Cc3ccccc3)c12` [Compound 48, 3-(1-Benzyl-1H-imidazol-5-yl)-4-bromo-1H-indole], with 201 to 202 °C; and `COc1ccc2[nH]cc(-c3cncn3Cc3ccccc3)c2c1` [Compound 49, 3-(1-Benzyl-1H-imidazol-5-yl)-5-methoxy-1H-indole], with 65 to 66 °C; and `COc1ccc2c(-c3cncn3Cc3ccccc3)c[nH]c2c1` [Compound 50, 3-(1-Benzyl-1H-imidazol-5-yl)-6-methoxy-1H-indole], with 66 to 67 °C.

As for `Fc1cccc2[nH]cc(-c3cncn3CCc3ccccc3)c12` [Compound 51, 4-Fluoro-3-(1-phenethyl-1H-imidazol-5-yl)-1H-indole], the melting point was in the range of 181 to 182 °C.

The values are drawn from article PMC9598367, “Discovery and Preliminary Structure-Activity Investigation of 3-Substituted-1H-imidazol-5-yl-1H-indoles with In Vitro Activity towards Methicillin-Resistant Staphylococcus aureus” (Antibiotics, 2022).
